Assay results: patent publication US20240210412A1, “SULFONYL-TRIAZOLE COMPOUNDS USEFUL AS LIGANDS AND INHIBITORS OF PROSTAGLANDIN REDUCTASE 2” (University of Virginia Patent Foundation, priority 2021, published 2024)

How the values were obtained:
Experiment in all cases: SILAC LC-MS ABPP
Assay type in all cases: cell-based
Conditions in all cases: 25 μM 2 h, live DM93 cells
P53621 = molecular target: T1, P53621 (Homo sapiens, UniProt P53621)
T1 construct: endogenous in cells; host or cells: DM93 cells (SILAC)
How it was run: (§1)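 Quantification uses SILAC ratios from LC-MS/MS of probe-modified tyrosine peptides. DM93 melanoma cells: heavy treated with 25 μM SuTEx ligand, light with DMSO (2 h, 37 °C), followed by HHS-475 probe at 100 μM for 2 h.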

Q15020 = molecular target: T2, Q15020 (Homo sapiens, UniProt Q15020)
T2 construct: performing SuTEx compound screening directly in cells; endogenous in cells; host or cells: DM93 cells (SILAC), soluble fraction
How it was run: as §1

Q6N069 = molecular target: T3, Q6N069 (Homo sapiens, UniProt Q6N069)
T3 construct: performing SuTEx compound screening directly in cells; endogenous in cells; host or cells: DM93 cells (SILAC), soluble fraction
How it was run: as §1

Q8IX04 = molecular target: T4, Q8IX04 (Homo sapiens, UniProt Q8IX04)
T4 construct: endogenous in cells; host or cells: DM93 cells (SILAC), live-cell treatment
How it was run: as §1

Q8NBF2 = molecular target: T5, Q8NBF2 (Homo sapiens, UniProt Q8NBF2)
T5 construct: endogenous in cells; host or cells: DM93 cells (SILAC), live-cell treatment
How it was run: as §1

Q8WVJ2 = molecular target: T6, Q8WVJ2 (Homo sapiens, UniProt Q8WVJ2)
T6 construct: endogenous in cells; host or cells: DM93 cells (SILAC), live-cell treatment
How it was run: as §1

Q9UJ68 = molecular target: T7, Q9UJ68 (Homo sapiens, UniProt Q9UJ68)
T7 construct: endogenous in cells; host or cells: DM93 cells (SILAC)
How it was run: as §1

O60506 = molecular target: T8, O60506 (Homo sapiens, UniProt O60506)
T8 construct: endogenous in cells; host or cells: DM93
How it was run: as §1

P02794 = molecular target: T9, P02794 (Homo sapiens, UniProt P02794)
T9 construct: endogenous in cells; host or cells: DM93 cells (SILAC)
How it was run: as §1

P24534 = molecular target: T10, P24534 (Homo sapiens, UniProt P24534)
T10 construct: endogenous in cells; host or cells: DM93 (SILAC)
How it was run: as §1

P39019 = molecular target: T11, P39019 (Homo sapiens, UniProt P39019)
T11 construct: Probe-modified proteins from the soluble fraction were conjugated to a desthiobiotin-azide tag; endogenous in cells; host or cells: DM93 (SILAC)
How it was run: as §1

P48147 = molecular target: T12, P48147 (Homo sapiens, UniProt P48147)
T12 construct: endogenous in cells; host or cells: DM93 cells (SILAC)
How it was run: as §1

Q92878 = molecular target: T13, Q92878 (Homo sapiens, UniProt Q92878)
T13 construct: endogenous in cells; host or cells: DM93 cells (SILAC), live-cell treatment
How it was run: as §1

Q9HCE5 = molecular target: T14, Q9HCE5 (Homo sapiens, UniProt Q9HCE5)
T14 construct: endogenous in cells; host or cells: DM93 cells (SILAC), treated live; soluble proteome analysed
How it was run: as §1

O75351 = molecular target: T15, O75351 (Homo sapiens, UniProt O75351)
T15 construct: endogenous in cells; host or cells: DM93
How it was run: as §1

P55084 = molecular target: T16, P55084 (Homo sapiens, UniProt P55084)
T16 construct: endogenous in cells; host or cells: DM93 cells (SILAC)
How it was run: as §1

Q04837 = molecular target: T17, Q04837 (Homo sapiens, UniProt Q04837)
T17 construct: performing SuTEx compound screening directly in cells; endogenous in cells; host or cells: DM93 cells (SILAC)
How it was run: as §1

Q13011 = molecular target: T18, Q13011 (Homo sapiens, UniProt Q13011)
T18 construct: performing SuTEx compound screening directly in cells; endogenous in cells; host or cells: DM93 cells (SILAC)
How it was run: as §1

T17 sequence (Q04837 17-148): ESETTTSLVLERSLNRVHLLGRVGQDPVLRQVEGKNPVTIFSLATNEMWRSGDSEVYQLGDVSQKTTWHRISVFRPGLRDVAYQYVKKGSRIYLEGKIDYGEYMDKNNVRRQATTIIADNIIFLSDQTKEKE
T15 sequence (O75351 whole entry): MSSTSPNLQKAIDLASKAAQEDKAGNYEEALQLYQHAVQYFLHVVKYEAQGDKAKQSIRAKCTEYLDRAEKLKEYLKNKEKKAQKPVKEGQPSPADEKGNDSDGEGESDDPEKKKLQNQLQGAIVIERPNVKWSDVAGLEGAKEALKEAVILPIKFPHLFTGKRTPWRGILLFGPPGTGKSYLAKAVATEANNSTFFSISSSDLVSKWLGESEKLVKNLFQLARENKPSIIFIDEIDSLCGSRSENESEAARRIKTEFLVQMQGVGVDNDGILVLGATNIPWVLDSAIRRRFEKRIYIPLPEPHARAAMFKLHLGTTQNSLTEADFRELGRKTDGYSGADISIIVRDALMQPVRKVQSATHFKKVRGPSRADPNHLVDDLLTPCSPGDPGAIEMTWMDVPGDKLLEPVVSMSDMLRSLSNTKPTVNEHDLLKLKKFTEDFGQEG
T18 sequence (Q13011 34-328): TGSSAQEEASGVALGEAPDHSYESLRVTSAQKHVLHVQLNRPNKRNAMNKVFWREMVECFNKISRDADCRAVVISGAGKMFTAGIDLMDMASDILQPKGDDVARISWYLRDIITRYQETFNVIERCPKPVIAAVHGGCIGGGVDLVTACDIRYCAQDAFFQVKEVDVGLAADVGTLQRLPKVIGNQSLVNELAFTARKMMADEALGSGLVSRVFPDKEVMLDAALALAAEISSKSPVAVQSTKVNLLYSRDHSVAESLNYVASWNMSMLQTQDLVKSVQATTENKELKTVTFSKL
T1 sequence (P53621 whole entry): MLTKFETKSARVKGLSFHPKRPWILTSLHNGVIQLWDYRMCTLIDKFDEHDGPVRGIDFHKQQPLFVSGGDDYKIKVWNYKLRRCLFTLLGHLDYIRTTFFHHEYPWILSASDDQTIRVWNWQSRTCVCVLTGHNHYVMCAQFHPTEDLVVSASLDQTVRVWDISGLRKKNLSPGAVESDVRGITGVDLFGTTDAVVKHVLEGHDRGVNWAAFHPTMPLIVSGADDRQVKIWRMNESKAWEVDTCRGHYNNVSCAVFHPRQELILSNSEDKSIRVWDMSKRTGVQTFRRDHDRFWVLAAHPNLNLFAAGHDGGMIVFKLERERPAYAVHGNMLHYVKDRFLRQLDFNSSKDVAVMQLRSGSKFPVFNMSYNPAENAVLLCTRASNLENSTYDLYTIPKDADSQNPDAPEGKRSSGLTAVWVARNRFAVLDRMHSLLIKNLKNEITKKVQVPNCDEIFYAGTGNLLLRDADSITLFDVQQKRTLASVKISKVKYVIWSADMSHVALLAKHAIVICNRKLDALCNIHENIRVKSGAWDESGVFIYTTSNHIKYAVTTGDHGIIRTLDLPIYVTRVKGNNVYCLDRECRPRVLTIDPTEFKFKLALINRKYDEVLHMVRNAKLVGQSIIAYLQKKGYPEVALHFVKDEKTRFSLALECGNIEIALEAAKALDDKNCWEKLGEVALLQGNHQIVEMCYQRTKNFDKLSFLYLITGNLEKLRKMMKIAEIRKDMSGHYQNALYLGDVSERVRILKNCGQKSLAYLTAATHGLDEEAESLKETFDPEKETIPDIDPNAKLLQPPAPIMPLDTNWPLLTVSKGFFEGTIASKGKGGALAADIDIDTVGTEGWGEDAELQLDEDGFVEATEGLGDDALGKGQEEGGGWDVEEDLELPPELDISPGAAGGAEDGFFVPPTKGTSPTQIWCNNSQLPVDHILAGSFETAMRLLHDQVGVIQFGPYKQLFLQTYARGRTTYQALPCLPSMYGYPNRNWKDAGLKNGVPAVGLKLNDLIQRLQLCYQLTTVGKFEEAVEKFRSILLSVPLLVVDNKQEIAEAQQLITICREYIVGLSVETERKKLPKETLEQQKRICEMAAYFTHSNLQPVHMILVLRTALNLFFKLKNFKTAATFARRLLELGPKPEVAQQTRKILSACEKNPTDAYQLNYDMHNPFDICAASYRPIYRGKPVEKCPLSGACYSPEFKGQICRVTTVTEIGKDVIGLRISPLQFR
T2 sequence (Q15020 whole entry): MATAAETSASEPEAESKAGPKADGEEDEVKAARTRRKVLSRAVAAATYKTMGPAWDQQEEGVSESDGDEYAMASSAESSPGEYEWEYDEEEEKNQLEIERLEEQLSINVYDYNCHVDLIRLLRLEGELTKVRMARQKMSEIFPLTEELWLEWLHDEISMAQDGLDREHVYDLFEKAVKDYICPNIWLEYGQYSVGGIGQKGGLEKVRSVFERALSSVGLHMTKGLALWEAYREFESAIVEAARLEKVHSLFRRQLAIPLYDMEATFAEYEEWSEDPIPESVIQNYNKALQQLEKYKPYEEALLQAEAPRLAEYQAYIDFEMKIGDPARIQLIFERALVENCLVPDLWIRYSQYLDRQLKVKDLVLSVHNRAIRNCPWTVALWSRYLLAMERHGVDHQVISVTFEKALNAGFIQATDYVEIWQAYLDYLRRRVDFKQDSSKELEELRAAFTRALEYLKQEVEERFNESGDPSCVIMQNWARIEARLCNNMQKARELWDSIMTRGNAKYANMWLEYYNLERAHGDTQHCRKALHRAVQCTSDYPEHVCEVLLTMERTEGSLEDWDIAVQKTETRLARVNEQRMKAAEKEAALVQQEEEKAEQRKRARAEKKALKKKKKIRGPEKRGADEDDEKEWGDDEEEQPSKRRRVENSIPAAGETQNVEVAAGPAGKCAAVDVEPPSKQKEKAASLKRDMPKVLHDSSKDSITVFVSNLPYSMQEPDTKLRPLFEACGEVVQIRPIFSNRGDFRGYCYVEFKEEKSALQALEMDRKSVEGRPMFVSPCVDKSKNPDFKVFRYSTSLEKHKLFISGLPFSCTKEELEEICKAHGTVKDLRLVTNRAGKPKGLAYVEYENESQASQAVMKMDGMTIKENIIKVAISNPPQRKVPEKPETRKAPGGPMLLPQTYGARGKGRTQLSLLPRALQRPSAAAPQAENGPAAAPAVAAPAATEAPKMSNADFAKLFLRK
T10 sequence (P24534 whole entry): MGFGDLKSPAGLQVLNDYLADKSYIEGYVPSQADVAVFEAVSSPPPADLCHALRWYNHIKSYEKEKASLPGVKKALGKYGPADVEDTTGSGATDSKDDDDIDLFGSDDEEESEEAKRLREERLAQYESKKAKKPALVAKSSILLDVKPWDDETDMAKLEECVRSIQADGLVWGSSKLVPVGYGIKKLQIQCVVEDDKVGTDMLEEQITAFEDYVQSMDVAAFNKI
T7 sequence (Q9UJ68 24-235): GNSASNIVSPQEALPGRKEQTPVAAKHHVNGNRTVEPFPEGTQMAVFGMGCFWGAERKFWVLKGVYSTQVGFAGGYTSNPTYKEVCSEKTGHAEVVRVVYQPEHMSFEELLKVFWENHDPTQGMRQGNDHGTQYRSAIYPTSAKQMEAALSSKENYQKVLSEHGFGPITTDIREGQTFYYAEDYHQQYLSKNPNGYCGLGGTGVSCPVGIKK
T8 sequence (O60506 whole entry): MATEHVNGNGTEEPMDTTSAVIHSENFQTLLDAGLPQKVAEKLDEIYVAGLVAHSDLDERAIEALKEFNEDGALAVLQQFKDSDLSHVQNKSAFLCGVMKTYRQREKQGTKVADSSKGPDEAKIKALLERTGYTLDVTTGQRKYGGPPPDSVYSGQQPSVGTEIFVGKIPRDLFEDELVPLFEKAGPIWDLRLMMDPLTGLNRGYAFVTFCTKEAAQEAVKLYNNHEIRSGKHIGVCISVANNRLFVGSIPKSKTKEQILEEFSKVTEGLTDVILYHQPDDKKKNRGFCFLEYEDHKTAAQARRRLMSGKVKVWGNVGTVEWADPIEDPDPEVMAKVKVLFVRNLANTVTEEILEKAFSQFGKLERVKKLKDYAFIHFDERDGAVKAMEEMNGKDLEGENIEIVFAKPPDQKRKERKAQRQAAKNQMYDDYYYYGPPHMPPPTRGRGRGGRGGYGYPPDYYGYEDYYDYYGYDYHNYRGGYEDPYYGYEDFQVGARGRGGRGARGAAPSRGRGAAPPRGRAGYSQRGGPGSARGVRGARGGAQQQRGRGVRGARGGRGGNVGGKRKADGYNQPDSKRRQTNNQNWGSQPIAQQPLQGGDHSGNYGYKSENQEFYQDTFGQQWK
T6 sequence (Q8WVJ2 whole entry): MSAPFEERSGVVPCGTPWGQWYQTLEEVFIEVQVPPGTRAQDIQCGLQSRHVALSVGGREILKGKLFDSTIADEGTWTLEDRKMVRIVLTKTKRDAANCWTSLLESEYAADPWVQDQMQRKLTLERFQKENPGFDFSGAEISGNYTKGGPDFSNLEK
T9 sequence (P02794 whole entry): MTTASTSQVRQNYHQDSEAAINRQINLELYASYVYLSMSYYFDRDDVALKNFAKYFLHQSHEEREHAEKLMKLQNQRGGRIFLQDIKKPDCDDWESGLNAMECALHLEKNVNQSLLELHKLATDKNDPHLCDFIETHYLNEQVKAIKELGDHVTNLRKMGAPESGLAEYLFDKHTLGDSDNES
T4 sequence (Q8IX04 whole entry): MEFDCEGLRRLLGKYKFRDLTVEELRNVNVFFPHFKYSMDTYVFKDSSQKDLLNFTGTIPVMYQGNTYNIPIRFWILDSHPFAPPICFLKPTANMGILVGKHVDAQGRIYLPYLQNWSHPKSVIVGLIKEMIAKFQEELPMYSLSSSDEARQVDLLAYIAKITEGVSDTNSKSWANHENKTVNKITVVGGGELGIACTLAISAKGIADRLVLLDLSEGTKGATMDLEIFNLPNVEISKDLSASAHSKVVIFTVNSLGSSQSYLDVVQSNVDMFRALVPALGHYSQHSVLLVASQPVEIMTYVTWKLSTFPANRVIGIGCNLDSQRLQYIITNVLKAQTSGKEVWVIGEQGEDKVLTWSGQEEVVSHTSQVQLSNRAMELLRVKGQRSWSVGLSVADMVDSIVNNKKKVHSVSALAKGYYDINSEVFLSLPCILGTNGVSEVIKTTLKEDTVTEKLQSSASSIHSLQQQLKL

Q: Which results are given for `O=C(NC1CC1)c1ccc(S(=O)(=O)n2cncn2)cc1` [HHS-0101, 4-((1H-1,2,4-triazol-1-yl)sulfonyl)-N-cyclopropylbenzamide]?
A: liganded tyrosine site 628 (P53621): HHS0101.Y|HHS0401.Y|HHS0701.Y (tyrosine sites that showed >80% reductions (SR >5) in probe labeling in cells treated with compounds (liganded sites)); liganded tyrosine site 541 (Q15020): HHS0101.Y|HHS0201.Y|HHS0301.Y|HHS0401.Y|HHS0701.Y (tyrosine sites that showed >80% reductions (SR >5) in probe labeling in cells treated with compounds (liganded sites)); liganded tyrosine site 86 (Q6N069): HHS0101.Y|HHS0701.Y (tyrosine sites that showed >80% reductions (SR >5) in probe labeling in cells treated with compounds (liganded sites)); liganded tyrosine site 158 (Q8IX04): HHS0101.Y|HHS0201.Y|HHS0301.Y (tyrosine sites that showed >80% reductions (SR >5) in probe labeling in cells treated with compounds (liganded sites)); liganded tyrosine site 23 (Q8NBF2): HHS0101.Y (tyrosine sites that showed >80% reductions (SR >5) in probe labeling in cells treated with compounds (liganded sites)); liganded tyrosine site 145 (Q8WVJ2): HHS0101.Y (tyrosine sites that showed >80% reductions (SR >5) in probe labeling in cells treated with compounds (liganded sites)); liganded tyrosine site 211 (Q9UJ68): HHS0101.Y|HHS0401.Y|HHS0701.Y (tyrosine sites that showed >80% reductions (SR >5) in probe labeling in cells treated with compounds (liganded sites))

Q: Which results are given for `O=C(NCC1CC1)c1ccc(S(=O)(=O)n2cncn2)cc1` [HHS-0201, 4-((1H-1,2,4-triazol-1-yl)sulfonyl)-N-(cyclopropylmethyl)benzamide]?
A: liganded tyrosine site 570 (O60506): HHS0201.Y|HHS0301.Y|HHS0401.Y|HHS0701.Y (tyrosine sites that showed >80% reductions (SR >5) in probe labeling in cells treated with compounds (liganded sites)); liganded tyrosine site 13 (P02794): HHS0201.Y (tyrosine sites that showed >80% reductions (SR >5) in probe labeling in cells treated with compounds (liganded sites)); liganded tyrosine site 18 (P24534): HHS0201.Y|HHS0401.Y|HHS0701.Y (tyrosine sites that showed >80% reductions (SR >5) in probe labeling in cells treated with compounds (liganded sites)); liganded tyrosine site 54 (P39019): HHS0201.Y (tyrosine sites that showed >80% reductions (SR >5) in probe labeling in cells treated with compounds (liganded sites)); liganded tyrosine site 473 (P48147): HHS0201.Y (tyrosine sites that showed >80% reductions (SR >5) in probe labeling in cells treated with compounds (liganded sites)); liganded tyrosine site 244 (Q92878): HHS0201.Y|HHS0301.Y (tyrosine sites that showed >80% reductions (SR >5) in probe labeling in cells treated with compounds (liganded sites)); liganded tyrosine site 169 (Q9HCE5): HHS0201.Y|HHS0301.Y (tyrosine sites that showed >80% reductions (SR >5) in probe labeling in cells treated with compounds (liganded sites))

Q: How did the “liganded tyrosine site 47” value (O75351) turn out when `O=C(NCc1ccccc1)c1ccc(S(=O)(=O)n2cncn2)cc1` [HHS-0401, 4-((1H-1,2,4-triazol-1-yl)sulfonyl)-N-benzylbenzamide] was run?
A: HHS0401.Y (tyrosine sites that showed >80% reductions (SR >5) in probe labeling in cells treated with compounds (liganded sites))

Q: What about the “liganded tyrosine site 402” value (P55084) of the same molecule?
A: HHS0401.Y (tyrosine sites that showed >80% reductions (SR >5) in probe labeling in cells treated with compounds (liganded sites))

Q: How did the “liganded tyrosine site 101” value (Q04837) turn out when `O=C(c1ccc(S(=O)(=O)n2cncn2)cc1)N1CCC(c2ccccc2)CC1` [HHS-0701, (4-((1H-1,2,4-triazol-1-yl)sulfonyl)phenyl)(4-phenylpiperidin-1-yl)methanone] was run?
A: HHS0701.Y (tyrosine sites that showed >80% reductions (SR >5) in probe labeling in cells treated with compounds (liganded sites))

Q: What about the “liganded tyrosine site 119” value (Q04837) of the same molecule?
A: HHS0701.Y (tyrosine sites that showed >80% reductions (SR >5) in probe labeling in cells treated with compounds (liganded sites))

Q: What about the “liganded tyrosine site 149” value (Q13011) of the same molecule?
A: HHS0701.Y (tyrosine sites that showed >80% reductions (SR >5) in probe labeling in cells treated with compounds (liganded sites))
